Data set [1] has as its system BaF3. As to the kind of experiment: Inhibition of 0.1 nM of MIP-1beta induced migration of recombinant mouse pro-B cell line BA/F3 expressing human CCR5. The data set is classed as functional, cell-based.
In data set [2] the target is C-C chemokine receptor type 5 (Homo sapiens, UniProt P51681). As to the kind of experiment: Ability to inhibit [125I]-labeled RANTES binding to the CCR5 receptor expressed in membrane preparations from CHO cells. In kind it is cell membranes.
Sequence of C-C chemokine receptor type 5 (P51681 whole entry): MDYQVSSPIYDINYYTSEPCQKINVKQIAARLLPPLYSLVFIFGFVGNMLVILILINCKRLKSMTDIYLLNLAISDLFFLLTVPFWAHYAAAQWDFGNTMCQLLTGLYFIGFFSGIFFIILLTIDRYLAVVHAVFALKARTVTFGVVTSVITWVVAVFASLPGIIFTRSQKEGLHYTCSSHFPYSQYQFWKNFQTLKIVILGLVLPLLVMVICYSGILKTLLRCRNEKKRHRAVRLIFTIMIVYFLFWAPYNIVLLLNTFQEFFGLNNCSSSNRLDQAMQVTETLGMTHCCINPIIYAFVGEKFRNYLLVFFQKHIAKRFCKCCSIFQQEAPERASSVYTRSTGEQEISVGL
In data set [3] the test system is U-87 MG. As to the kind of experiment: Compound was tested for inhibiting HIV (ADA) entry into cells; Range is 0.2-2.0 nM. The following applies: Homo sapiens. The data set is classed as functional, cell-based, U-87MG ATCC.
The target in data set [4] is T1, Muscarinic acetylcholine receptor M2 (Homo sapiens, UniProt P08172).
T1 sequence (P08172 whole entry): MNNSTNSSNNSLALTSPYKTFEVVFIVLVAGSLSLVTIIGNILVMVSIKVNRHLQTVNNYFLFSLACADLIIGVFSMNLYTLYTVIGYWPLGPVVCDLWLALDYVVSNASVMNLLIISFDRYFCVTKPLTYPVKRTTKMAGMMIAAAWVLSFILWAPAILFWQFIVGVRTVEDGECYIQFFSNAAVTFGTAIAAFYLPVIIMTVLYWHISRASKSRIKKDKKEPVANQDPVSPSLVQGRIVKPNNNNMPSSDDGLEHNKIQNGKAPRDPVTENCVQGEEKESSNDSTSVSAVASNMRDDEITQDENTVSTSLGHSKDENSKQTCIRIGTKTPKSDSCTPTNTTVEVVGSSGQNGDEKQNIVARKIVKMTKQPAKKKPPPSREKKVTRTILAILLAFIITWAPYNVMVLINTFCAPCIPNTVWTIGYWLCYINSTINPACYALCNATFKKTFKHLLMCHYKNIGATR
In words: Binding affinity towards muscarinic receptor M2.

The test system of data set [5] is U-87 MG. In words: Tested for inhibiting HIV (ADA) entry into cells. The following applies: Homo sapiens. In kind it is functional, cell-based, U-87MG ATCC.
Data set [6] is described as follows: Oral bioavailability evaluated in monkey. In kind it is ADME, organism-based. The following applies: cercopithecidae, in vivo.
Data set [7] can be described thus: Cmax value evaluated in monkey. In kind it is ADME, organism-based. The following applies: cercopithecidae, in vivo.
Data set [8] is described as follows: Oral bioavailability evaluated in rat. The following applies: in vivo. In kind it is ADME, organism-based.
Data set [9] can be described thus: Ratio of AUCbrain to AUCplasma. In kind it is ADME, organism-based. The following applies: rat, brain and plasma.
Data set [10] in a line: Cmax value evaluated in rat. The data set is classed as ADME, organism-based. The following applies: in vivo.
Data set [11] concerns the target T1, Muscarinic acetylcholine receptor M2. In words: Inhibition of binding affinity to muscarinic receptor M2.
The nature of data set [12]: Compound was tested for inhibition of HIV isolate bal (hz) in peripheral blood mononuclear cells (PBMC). In kind it is functional.
The nature of data set [13]: Compound was tested for inhibition of HIV isolate 301657 (hz) in peripheral blood mononuclear cells (PBMC). The data set is classed as functional.
A short description of data set [14]: Compound was tested for inhibition of HIV isolate 301657 (wt) in peripheral blood mononuclear cells (PBMC). The data set is classed as functional.
Data set [15] is described as follows: Compound was tested for inhibition of HIV isolate ASM 108 (hz) in peripheral blood mononuclear cells (PBMC). In kind it is functional.
A short description of data set [16]: Compound was tested for inhibition of HIV isolate BCF01 in peripheral blood mononuclear cells (PBMC). In kind it is functional.
Data set [17] is described as follows: Compound was tested for inhibition of HIV isolate JV 1083 in peripheral blood mononuclear cells (PBMC). The data set is classed as functional.
Data set [18] can be described thus: Compound was tested for inhibition of HIV isolate US-1 in peripheral blood mononuclear cells (PBMC). The data set is classed as functional.
Data set [19] in a line: Compound was tested for inhibition of HIV isolate YU-2 (wt) in peripheral blood mononuclear cells (PBMC). In kind it is functional.
Data set [20] in a line: Compound was tested for inhibition of HIV isolate ASM 108 (wt) in peripheral blood mononuclear cells (PBMC). In kind it is functional.
Data set [21] can be described thus: Compound was tested for inhibition of HIV isolate YU-2 (hz) in peripheral blood mononuclear cells (PBMC). The data set is classed as functional.
Data set [22] addresses T2, Muscarinic acetylcholine receptor M1 (Homo sapiens, UniProt P11229).
T2 sequence (P11229 whole entry): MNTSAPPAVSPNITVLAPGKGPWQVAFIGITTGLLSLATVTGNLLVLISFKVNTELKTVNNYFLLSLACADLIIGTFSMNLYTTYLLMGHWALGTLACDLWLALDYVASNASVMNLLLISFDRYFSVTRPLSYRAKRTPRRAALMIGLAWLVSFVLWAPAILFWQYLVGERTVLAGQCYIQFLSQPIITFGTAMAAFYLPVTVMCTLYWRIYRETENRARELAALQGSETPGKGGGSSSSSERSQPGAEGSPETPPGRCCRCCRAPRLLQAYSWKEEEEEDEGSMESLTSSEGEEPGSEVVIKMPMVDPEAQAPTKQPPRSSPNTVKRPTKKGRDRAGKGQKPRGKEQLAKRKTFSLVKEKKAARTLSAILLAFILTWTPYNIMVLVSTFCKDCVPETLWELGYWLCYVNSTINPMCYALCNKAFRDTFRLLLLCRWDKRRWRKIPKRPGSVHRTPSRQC
In words: Binding affinity towards muscarinic receptor M1.

Data set [23] deals with Rattus norvegicus. In words: Dose required for observing CNS and GI effects in rats after peroral administration. In kind it is functional.
Data set [24] has as its system Rattus norvegicus. As to the kind of experiment: Dose required for observing cardiovascular effects in rats after peroral administration. In kind it is functional, Heart.
For data set [25], the system named is U-87 MG. As to the kind of experiment: Compound was tested for inhibiting HIV (ADA) entry into U-87 cells; range is 2-20 nM. The following applies: Homo sapiens. In kind it is functional, cell-based, U-87MG ATCC.

In the case of `Cc1ccnc(C)c1C(=O)N1CCC(C)(N2CCN([C@@H](C)c3ccc(C(F)(F)F)cc3)[C@@H](C)C2)CC1`, the concentration for half-maximal inhibition (IC50) in [1] was 0.03 nM; in data set [3], 0.2 nM. For the same compound, in data set [2], the Ki was 2 nM.

`Cc1c[n+]([O-])cc(C)c1C(=O)N1CCC(C)(N2CCN([C@@H](C)c3ccc(C(F)(F)F)cc3)[C@@H](C)C2)CC1`: the Ki was found to be 18 nM in [2] and 255 nM in [4]. In addition, the 50% inhibitory concentration (IC50) in [5] turned out to be 0.9 nM.

As to `Cc1ncnc(C)c1C(=O)N1CCC(C)(N2CCN([C@@H](C)c3ccc(I)cc3)[C@@H](C)C2)CC1`, the Ki came to 11 nM in [2] and 169 nM in data set [4].

As for `Cc1nc(C(F)(F)F)nc(C)c1C(=O)N1CCC(C)(N2CCN([C@@H](C)c3ccc(C(F)(F)F)cc3)[C@@H](C)C2)CC1`, the Ki amounted to 10 nM in data set [2] and 613 nM in data set [4]. The same compound returned an IC50 in [5] of 0.1 nM.

On to `C[C@H]1CN(C2(C)CCN(C(=O)c3c(Cl)cncc3Cl)CC2)CCN1[C@@H](C)c1ccc(C(F)(F)F)cc1`, for which the Ki in data set [2] came out at 0.7 nM; in data set [4] it was 2030 nM. Moreover, half-maximal inhibition in data set [5] (IC50) was put at 0.3 nM.

For the compound `Cc1ncnc(C)c1C(=O)N1CCC(C)(N2CCN([C@@H](C)c3ccc(OC(F)(F)F)cc3)[C@@H](C)C2)CC1`, the results for the Ki in data set [2] and in data set [4] were 11 nM and 68 nM, respectively. Besides, the IC50 in [5] turned out to be 1.2 nM.

As for `C[C@H]1CN(C2(C)CCN(C(=O)c3c(Cl)c[n+]([O-])cc3Cl)CC2)CCN1[C@@H](C)c1ccc(C(F)(F)F)cc1`, the figures for the Ki in [2] and in [4] were 2.7 nM and 348 nM, respectively. This compound gave an IC50 in data set [5] of 0.45 nM.

As for `COc1nc(C)c(C(=O)N2CCC(C)(N3CCN([C@@H](C)c4ccc(C(F)(F)F)cc4)[C@@H](C)C3)CC2)c(C)n1`, the Ki in data set [2] stood at 11 nM; in data set [4], 202 nM.

In the case of `Cc1nc(N)nc(C)c1C(=O)N1CCC(C)(N2CCN([C@@H](C)c3ccc(C(F)(F)F)cc3)[C@@H](C)C2)CC1`, the Ki in data set [2] is 38 nM; in [4], 1100 nM.

With `Cc1ncnc(C)c1C(=O)N1CCC(C)(N2CCN([C@@H](C)c3ccc(C(F)(F)F)cc3)[C@@H](C)C2)CC1`, the bioavailability in [6] worked out at 50%; in [8], 97%. The figures for the Cmax in data set [7] and in data set [10] were 340 ng/mL and 1490 ng/mL, respectively. Also, the Kp in data set [9] turned out to be 1.7. Also, the Ki in data set [4] and in data set [11] was 456 nM in each case. The IC50 in data set [12] amounted to 6.4 nM; in data set [13] it was 26.8 nM; in data set [14], 3.2 nM; in [15] it was 0.2 nM; in data set [16], 200 nM; in data set [17], 166 nM. Further, the IC50 stood at 0.7 nM in [18]; 2.3 nM in data set [19]; 0.5 nM in data set [5]; 7 nM in data set [20]; 1.3 nM in data set [21]. The IC90 in data set [12] (Human immunodeficiency virus 1) was 60 nM; in data set [13] (Human immunodeficiency virus 1), greater than 1000 nM; in data set [14] (Human immunodeficiency virus 1), 24 nM; in data set [15] (Human immunodeficiency virus 1) it was 3 nM; in data set [16] (Human immunodeficiency virus 1), greater than 1000 nM; in data set [17] (Human immunodeficiency virus 1) it was greater than 300 nM. The IC90 is 4 nM in [18] (Human immunodeficiency virus 1), 8 nM in data set [19] (Human immunodeficiency virus 1), 17 nM in data set [20] (Human immunodeficiency virus 1) and 100 nM in data set [21] (Human immunodeficiency virus 1).

`Cc1cc[n+]([O-])c(C)c1C(=O)N1CCC(C)(N2CCN([C@@H](C)c3ccc(C(F)(F)F)cc3)[C@@H](C)C2)CC1`: the IC50 in data set [1] was determined as 0.1 nM; in data set [25], 2 nM. The compound further showed a Ki in data set [22] of 350 nM. Further, the Dose amounted to 30 mg/kg in data set [23] and 10 mg/kg in [24].

Turning to `Cc1ncnc(C)c1C(=O)N1CCC(C)(N2CCN([C@@H](C)c3ccc(C#N)cc3)[C@@H](C)C2)CC1`, the figures for the Ki in [2] and in data set [4] were 20 nM and 164 nM, respectively. In [5], this compound showed an IC50 of 1.8 nM.

In the case of `Cc1nc(-c2ccccc2)nc(C)c1C(=O)N1CCC(C)(N2CCN([C@@H](C)c3ccc(C(F)(F)F)cc3)[C@@H](C)C2)CC1`, the inhibition constant Ki in data set [2] was determined as 12 nM; in data set [4], 1230 nM. Moreover, the IC50 in data set [5] came to 1.8 nM.

Consider `Cc1nc(C)c(C(=O)N2CCC(C)(N3CCN([C@@H](C)c4ccc(C(F)(F)F)cc4)[C@@H](C)C3)CC2)c(C)n1`, for which the Ki in data set [2] was found to be 10 nM; in [4], 985 nM. Besides, half-maximal inhibition in [5] (IC50) required 1.45 nM.

In the case of `Cc1cncc(C)c1C(=O)N1CCC(C)(N2CCN([C@@H](C)c3ccc(C(F)(F)F)cc3)[C@@H](C)C2)CC1`, the inhibitory constant (Ki) in [2] stood at 5.23 nM; in data set [4] it was 1680 nM.

What is called IC50 is the midpoint of a concentration-inhibition curve. What is called Ki is the equilibrium dissociation constant of an inhibitor or competing ligand from its target. The bioavailability is dose-corrected exposure relative to a reference, in per cent. The Cmax is the maximum level reached in the sampled fluid or tissue. A word on the Kp: it is tissue or fluid exposure divided by exposure in the circulation. The term IC90 denotes the concentration needed for an effect of 90%.

(Values after ChEMBL document CHEMBL1136572, “Piperazine-based CCR5 antagonists as HIV-1 inhibitors. III: synthesis, antiviral and pharmacokinetic profiles of symmetrical heteroaryl carboxamides” (Bioorg Med Chem Lett, 2003).)
